Assays:
Assay in all cases: relative viability (nuclei count vs DMSO), 5 days (fraction); higher = more cells survive
Afatinib + Pemetrexed = compound: CN(C)C/C=C/C(=O)Nc1cc2c(Nc3ccc(F)c(Cl)c3)ncnc2cc1O[C@H]1CCOC1 [Afatinib] + Nc1nc2[nH]cc(CCc3ccc(C(=O)N[C@@H](CCC(=O)O)C(=O)O)cc3)c2c(=O)[nH]1 [Pemetrexed] (partner 0.2 µM)
How it was run: (§1)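 Dosing by pin tool came one day after lung cancer cell lines were seeded in 1536-well plates, using either one drug or a fixed anchor-drug dose plus five library-drug doses (not always all listed) in √10 steps. After 5 days, nuclei were counted on 4× images. Relative viability is treated-well nuclei count divided by vehicle-well nuclei count, and values are medians of duplicate plates.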

Afatinib + Vorinostat = compound: CN(C)C/C=C/C(=O)Nc1cc2c(Nc3ccc(F)c(Cl)c3)ncnc2cc1O[C@H]1CCOC1 [Afatinib] + O=C(CCCCCCC(=O)Nc1ccccc1)NO [Vorinostat] (partner 1 µM)
How it was run: as §1

Afatinib + Navitoclax = compound: CN(C)C/C=C/C(=O)Nc1cc2c(Nc3ccc(F)c(Cl)c3)ncnc2cc1O[C@H]1CCOC1 [Afatinib] + CC1(C)CCC(c2ccc(Cl)cc2)=C(CN2CCN(c3ccc(C(=O)NS(=O)(=O)c4ccc(N[C@H](CCN5CCOCC5)CSc5ccccc5)c(S(=O)(=O)C(F)(F)F)c4)cc3)CC2)C1 [Navitoclax] (partner 0.5 µM)
How it was run: as §1

Afatinib + Linsitinib = compound: CN(C)C/C=C/C(=O)Nc1cc2c(Nc3ccc(F)c(Cl)c3)ncnc2cc1O[C@H]1CCOC1 [Afatinib] + C[C@]1(O)C[C@@H](c2nc(-c3ccc4ccc(-c5ccccc5)nc4c3)c3c(N)nccn32)C1 [Linsitinib] (partner 1 µM)
How it was run: as §1

Cell Line	relative viability (Afatinib + Pemetrexed; first compound 0.005 µM)	relative viability (Afatinib + Pemetrexed; first compound 0.01581 µM)	relative viability (Afatinib + Pemetrexed; first compound 0.05 µM)	relative viability (Afatinib + Pemetrexed; first compound 0.1581 µM)	relative viability (Afatinib + Pemetrexed; first compound 0.5 µM)	relative viability (Afatinib + Vorinostat; first compound 0.005 µM)	relative viability (Afatinib + Vorinostat; first compound 0.01581 µM)	relative viability (Afatinib + Vorinostat; first compound 0.05 µM)	relative viability (Afatinib + Vorinostat; first compound 0.1581 µM)	relative viability (Afatinib + Vorinostat; first compound 0.5 µM)	relative viability (Afatinib + Navitoclax; first compound 0.005 µM)	relative viability (Afatinib + Navitoclax; first compound 0.01581 µM)	relative viability (Afatinib + Navitoclax; first compound 0.05 µM)	relative viability (Afatinib + Navitoclax; first compound 0.1581 µM)	relative viability (Afatinib + Navitoclax; first compound 0.5 µM)	relative viability (Afatinib + Linsitinib; first compound 0.005 µM)	relative viability (Afatinib + Linsitinib; first compound 0.01581 µM)	relative viability (Afatinib + Linsitinib; first compound 0.05 µM)	relative viability (Afatinib + Linsitinib; first compound 0.1581 µM)	relative viability (Afatinib + Linsitinib; first compound 0.5 µM)
HCC-366	0.16	0.173	0.146	0.196	0.168	0.329	0.36	0.348	0.36	0.345	1.14	1.04	1.18	1	1.06	0.764	0.669	0.56	0.541	0.618
HCC-827	0.118	0.157	0.153	0.153	0.159	0.166	0.134	0.146	0.151	0.146	0.173	0.168	0.157	0.18	0.147	0.202	0.163	0.18	0.172	0.176
HOP-62	0.305	0.302	0.328	0.338	0.292	0.736	0.655	0.746	0.727	0.673	1.3	1.09	1.19	1.11	1.09	1.03	1.13	1.2	1.03	1.04
IA-LM						1.1	0.964	0.866	0.81	0.892	0.689	0.821	0.906	0.796	0.933	0.67	0.713	0.502	0.571	0.601
LC-2-ad	0.275	0.273	0.259	0.28	0.274	0.767	0.717	0.705	0.662	0.78	0.483	0.458	0.419	0.322	0.32	0.935	0.817	0.794	0.696	0.682
LCLC-97TM1	0.17	0.187	0.191	0.21	0.152	0.793	0.784	0.861	0.628	0.646	0.383	0.546	0.411	0.344	0.455	0.176	0.179	0.167	0.156	0.205
LCLC-103H	0.485	0.478	0.514	0.492	0.48	0.809	0.817	0.703	0.732	0.704						1.09	0.943	1.02	0.99	0.99
LK-2	0.33	0.229	0.239	0.326	0.248	0.349	0.269	0.277	0.2	0.382	1.02	0.779	0.868	0.883	0.835	0.6	0.589	0.742	0.478	0.666
NCI-H358	0.16	0.146	0.153	0.137	0.141	0.514	0.432	0.375	0.207	0.253						0.466	0.329	0.366	0.318	0.264
NCI-H522	0.928	0.889	0.916	0.666	0.807	0.865	0.928	0.829	0.7	0.721										
NCI-H650	0.922	0.849	0.951	0.854	0.87	0.469	0.395	0.551	0.515	0.316						0.872	0.706	1.03	0.999	0.697
NCI-H661	0.956	0.861	0.809	0.616	0.688	0.867	0.738	0.755	0.64	0.63						0.669	0.531	0.516	0.375	0.294
NCI-H727						1.08	0.953	1	0.906	0.956	0.371	0.349	0.407	0.345	0.353	0.282	0.307	0.284	0.267	0.28
NCI-H1563	0.782	0.719	0.921	0.777	0.822											1.32	1.14	1.27	1.06	1.21
NCI-H1648	0.99	1.1	0.458	0.431	0.426	0.398	0.421	0.271	0.421	0.26										
NCI-H1650	0.31	0.291	0.344	0.284	0.3	0.462	0.424	0.599	0.472	0.432	0.979		1.25	0.962	1.22					
NCI-H1703											1.22	0.95	1.34	0.746	0.641	0.49		0.651	0.608	0.585
NCI-H1792	0.781	0.647	0.751	0.824	0.522						0.745	0.537	0.587	0.629	0.625	0.533	0.616	0.497	0.533	0.484
NCI-H2170	0.251	0.245	0.25	0.214	0.212	0.618	0.697	0.271	0.201	0.2	0.481	0.454	0.284	0.187	0.2					
NCI-H2342	0.763	0.762	0.706	0.777	0.747	0.706	0.628	0.729	0.695	0.696										
SW 900	0.467	0.445	0.497	0.487	0.448	0.597	0.364	0.544	0.428	0.461										
